Laboratory results from PMC10779641, “Synthesis and Activity Evaluation of Vinpocetine-Derived Indole Alkaloids” (Molecules, 2023).

Molecular target: PDE1A (Homo sapiens, UniProt P54750)
Test: PDE1A enzyme inhibition (fluorescence polarization, FAM-cyclic-3',5'-AMP)
Format: biochemical
Settings: for IC50: 15 ng/mL PDE1A, 100 nM FAM-cAMP, 25 °C, 1 h; for PDE1A inhibitory activity compared to vinpocetine (in words) / fold improvement in PDE1A inhibitory activity compared to vinpocetine: relative to vinpocetine
Experimental: The assays were carried out as described previously. All of the enzymatic reactions were conducted at 25 °C for 1 h. The reaction mixture contains 40 mM MOPS (pH 7.5), 0.5 mM EDTA, 15 mM MgCl2, 0.15 mg/mL BSA, 1 mM DTT, 0.05% Proclin 200, 15 ng/mL PDE1A, and 100 nM FAM-cyclic-3′, 5′-AMP. The compounds were dissolved in 10% DMSO, and 5 μL of the dilution was added to a 50 μL reaction for a final concentration of 1% DMSO in all reactions. The reaction mixture was incubated at 25 °C for 1 h. Then, 100 μL of diluted binding agent was added to each well and incubated at 25 °C for 1 h with slow shaking. The fluorescence polarization of the sample was detected using an excitation filter of 360 nm and an emission filter of 480 nm. The IC50 values were calculated using non-linear regression with a normalized dose–response fit using Prism 6 (GraphPad Software, San Diego, CA, USA).

Chain of PDE1A (P54750 whole entry, species assumed): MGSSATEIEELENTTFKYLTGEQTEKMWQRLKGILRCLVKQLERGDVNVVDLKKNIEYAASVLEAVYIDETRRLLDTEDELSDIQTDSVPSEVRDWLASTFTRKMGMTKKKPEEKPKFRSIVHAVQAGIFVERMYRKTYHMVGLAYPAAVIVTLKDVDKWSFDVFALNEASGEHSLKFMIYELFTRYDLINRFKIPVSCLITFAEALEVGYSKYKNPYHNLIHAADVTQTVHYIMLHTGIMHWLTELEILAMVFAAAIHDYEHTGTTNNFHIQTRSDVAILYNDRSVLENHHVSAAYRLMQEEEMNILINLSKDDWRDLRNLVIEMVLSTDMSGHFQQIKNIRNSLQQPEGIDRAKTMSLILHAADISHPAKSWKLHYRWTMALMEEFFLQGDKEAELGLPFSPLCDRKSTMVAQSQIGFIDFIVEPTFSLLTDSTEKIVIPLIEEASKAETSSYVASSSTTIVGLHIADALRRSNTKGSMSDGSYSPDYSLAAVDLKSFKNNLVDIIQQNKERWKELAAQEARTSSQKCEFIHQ

SMILES | IC50 | fold improvement in PDE1A inhibitory activity compared to vinpocetine | PDE1A inhibitory activity compared to vinpocetine (in words)
CC[C@@]12C=C(COCc3ccccc3)n3c4c(c5ccccc53)CCN(CCC1)[C@H]42 [Compound 2, (41S,13aS)-12-((benzyloxy)methyl)-13a-ethyl-2,3,41,5,6,13a-hexahydro-1H-indolo[3,2,1-de]pyrido[3,2,1-ij][1,5]naphthyridine] | 19.2 ± 2.25 µM |  | 
CC[C@@]12C=C(COCc3ccc(C)cc3)n3c4c(c5ccccc53)CCN(CCC1)[C@H]42 [Compound 3, (41S,13aS)-13a-ethyl-12-(((4-methylbenzyl)oxy)methyl)-2,3,41,5,6,13a-hexahydro-1H-indolo[3,2,1-de]pyrido[3,2,1-ij][1,5]naphthyridine] | 8.52 ± 0.68 µM |  | superior inhibitory activity compared to vinpocetine
CCC12C=C(COCc3cccc(C)c3)n3c4c(c5ccccc53)CCN(CCC1)C42 [Compound 4, (41S,13aS)-13a-ethyl-12-(((3-methylbenzyl)oxy)methyl)-2,3,41,5,6,13a-hexahydro-1H-indolo[3,2,1-de]pyrido[3,2,1-ij][1,5]naphthyridine] | 3.53 ± 0.25 µM | 5 fold | superior inhibitory activity compared to vinpocetine
CC[C@@]12C=C(COCc3ccc(F)cc3)n3c4c(c5ccccc53)CCN(CCC1)[C@H]42 [Compound 5, (41S,13aS)-13a-ethyl-12-(((4-fluorobenzyl)oxy)methyl)-2,3,41,5,6,13a-hexahydro-1H-indolo[3,2,1-de]pyrido[3,2,1-ij][1,5]naphthyridine] | 17.2 ± 3.75 µM |  | superior inhibitory activity compared to vinpocetine
CC[C@@]12C=C(COCc3cccc(F)c3)n3c4c(c5ccccc53)CCN(CCC1)[C@H]42 [Compound 6, (41S,13aS)-13a-ethyl-12-(((3-fluorobenzyl)oxy)methyl)-2,3,41,5,6,13a-hexahydro-1H-indolo[3,2,1-de]pyrido[3,2,1-ij][1,5]naphthyridine] | 25.6 ± 1.23 µM |  | 
CC[C@@]12C=C(COCc3ccccc3F)n3c4c(c5ccccc53)CCN(CCC1)[C@H]42 [Compound 7, (41S,13aS)-13a-ethyl-12-(((2-fluorobenzyl)oxy)methyl)-2,3,41,5,6,13a-hexahydro-1H-indolo[3,2,1-de]pyrido[3,2,1-ij][1,5]naphthyridine] | 28.7 ± 1.15 µM |  | 
CC[C@@]12C=C(COCc3ccc(Cl)cc3)n3c4c(c5ccccc53)CCN(CCC1)[C@H]42 [Compound 8, (41S,13aS)-12-(((4-chlorobenzyl)oxy)methyl)-13a-ethyl-2,3,41,5,6,13a-hexahydro-1H-indolo[3,2,1-de]pyrido[3,2,1-ij][1,5]naphthyridine] | 48.8 ± 2.55 µM |  | 
CC[C@@]12C=C(COCc3cccc(Cl)c3)n3c4c(c5ccccc53)CCN(CCC1)[C@H]42 [Compound 9, (41S,13aS)-12-(((3-chlorobenzyl)oxy)methyl)-13a-ethyl-2,3,41,5,6,13a-hexahydro-1H-indolo[3,2,1-de]pyrido[3,2,1-ij][1,5]naphthyridine] | 72.1 ± 3.89 µM |  | 
CC[C@@]12C=C(COCc3ccccc3Cl)n3c4c(c5ccccc53)CCN(CCC1)[C@H]42 [Compound 10, (41S,13aS)-12-(((2-chlorobenzyl)oxy)methyl)-13a-ethyl-2,3,41,5,6,13a-hexahydro-1H-indolo[3,2,1-de]pyrido[3,2,1-ij][1,5]naphthyridine] | 35 ± 1.85 µM |  | 
CC[C@@]12C=C(COCc3ccc(Br)cc3)n3c4c(c5ccccc53)CCN(CCC1)[C@H]42 [Compound 11, (41S,13aS)-12-(((4-bromobenzyl)oxy)methyl)-13a-ethyl-2,3,41,5,6,13a-hexahydro-1H-indolo[3,2,1-de]pyrido[3,2,1-ij][1,5]naphthyridine] | 54.8 ± 3.42 µM |  | 
CC[C@@]12C=C(COCc3cccc(Br)c3)n3c4c(c5ccccc53)CCN(CCC1)[C@H]42 [Compound 12, (41S,13aS)-12-(((3-bromobenzyl)oxy)methyl)-13a-ethyl-2,3,41,5,6,13a-hexahydro-1H-indolo[3,2,1-de]pyrido[3,2,1-ij][1,5]naphthyridine] | 12.5 ± 1.06 µM |  | superior inhibitory activity compared to vinpocetine
CC[C@@]12C=C(COCc3ccccc3Br)n3c4c(c5ccccc53)CCN(CCC1)[C@H]42 [Compound 13, (41S,13aS)-12-(((2-bromobenzyl)oxy)methyl)-13a-ethyl-2,3,41,5,6,13a-hexahydro-1H-indolo[3,2,1-de]pyrido[3,2,1-ij][1,5]naphthyridine] | 88.3 ± 3.26 µM |  | 
CC[C@@]12C=C(COCc3ccc(C#N)cc3)n3c4c(c5ccccc53)CCN(CCC1)[C@H]42 [Compound 14, 4-((((41S,13aS)-13a-ethyl-2,3,41,5,6,13a-hexahydro-1H-indolo[3,2,1-de]pyrido[3,2,1-ij][1,5]naphthyridin-12-yl)methoxy)methyl)benzonitrile] | 15.6 ± 1.09 µM |  | superior inhibitory activity compared to vinpocetine
CC[C@@]12C=C(COCc3ccccc3C#N)n3c4c(c5ccccc53)CCN(CCC1)[C@H]42 [Compound 15, 2-((((41S,13aS)-13a-ethyl-2,3,41,5,6,13a-hexahydro-1H-indolo[3,2,1-de]pyrido[3,2,1-ij][1,5]naphthyridin-12-yl)methoxy)methyl)benzonitrile] | 45.1 ± 2.27 µM |  | 
CC[C@@]12C=C(COCc3ccc(C(F)(F)F)cc3)n3c4c(c5ccccc53)CCN(CCC1)[C@H]42 [Compound 16, (41S,13aS)-13a-ethyl-12-(((4-(trifluoromethyl)benzyl)oxy)methyl)-2,3,41,5,6,13a-hexahydro-1H-indolo[3,2,1-de]pyrido[3,2,1-ij][1,5]naphthyridine] | 57.7 ± 2.96 µM |  | 
CC[C@@]12C=C(COCc3cccc(C(F)(F)F)c3)n3c4c(c5ccccc53)CCN(CCC1)[C@H]42 [Compound 17, (41S,13aS)-13a-ethyl-12-(((3-(trifluoromethyl)benzyl)oxy)methyl)-2,3,41,5,6,13a-hexahydro-1H-indolo[3,2,1-de]pyrido[3,2,1-ij][1,5]naphthyridine] | 48.4 ± 1.44 µM |  | 
CC[C@@]12C=C(COCc3ccc(-c4ccccc4)cc3)n3c4c(c5ccccc53)CCN(CCC1)[C@H]42 [Compound 18, (41S,13aS)-12-(([1,1′-biphenyl]-4-ylmethoxy)methyl)-13a-ethyl-2,3,41,5,6,13a-hexahydro-1H-indolo[3,2,1-de]pyrido[3,2,1-ij][1,5]naphthyridine] | 44.8 ± 2.26 µM |  | 

The next lines start with results.

IC50 | fold improvement in PDE1A inhibitory activity compared to vinpocetine | SMILES | PDE1A inhibitory activity compared to vinpocetine (in words)
54.3 ± 1.84 µM |  | CC[C@@]12C=C(COCc3cccc4ccccc34)n3c4c(c5ccccc53)CCN(CCC1)[C@H]42 [Compound 19, (41S,13aS)-13a-ethyl-12-((naphthalen-1-ylmethoxy)methyl)-2,3,41,5,6,13a-hexahydro-1H-indolo[3,2,1-de]pyrido[3,2,1-ij][1,5]naphthyridine] | 
89.6 ± 5.34 µM |  | CC[C@@]12C=C(COCc3ccc4ccccc4c3)n3c4c(c5ccccc53)CCN(CCC1)[C@H]42 [Compound 20, (41S,13aS)-13a-ethyl-12-((naphthalen-2-ylmethoxy)methyl)-2,3,41,5,6,13a-hexahydro-1H-indolo[3,2,1-de]pyrido[3,2,1-ij][1,5]naphthyridine] | 
10 ± 0.85 µM |  | CC[C@@]12C=C(COCc3cc(C)cc(C)c3)n3c4c(c5ccccc53)CCN(CCC1)[C@H]42 [Compound 21, (41S,13aS)-12-(((3,5-dimethylbenzyl)oxy)methyl)-13a-ethyl-2,3,41,5,6,13a-hexahydro-1H-indolo[3,2,1-de]pyrido[3,2,1-ij][1,5]naphthyridine] | superior inhibitory activity compared to vinpocetine
46.4 ± 1.94 µM |  | CC[C@@]12C=C(COCc3cc(F)cc(F)c3)n3c4c(c5ccccc53)CCN(CCC1)[C@H]42 [Compound 22, (41S,13aS)-12-(((3,5-difluorobenzyl)oxy)methyl)-13a-ethyl-2,3,41,5,6,13a-hexahydro-1H-indolo[3,2,1-de]pyrido[3,2,1-ij][1,5]naphthyridine] | 
58.2 ± 3.2 µM |  | CC[C@@]12C=C(COCc3cc(Br)cc(Br)c3)n3c4c(c5ccccc53)CCN(CCC1)[C@H]42 [Compound 23, (41S,13aS)-12-(((3,5-dibromobenzyl)oxy)methyl)-13a-ethyl-2,3,41,5,6,13a-hexahydro-1H-indolo[3,2,1-de]pyrido[3,2,1-ij][1,5]naphthyridine] | 
63.7 ± 3.85 µM |  | CC[C@@]12C=C(COCc3cc(C)nn3C)n3c4c(c5ccccc53)CCN(CCC1)[C@H]42 [Compound 24, (41S,13aS)-12-(((1,3-dimethyl-1H-pyrazol-5-yl)methoxy)methyl)-13a-ethyl-2,3,41,5,6,13a-hexahydro-1H-indolo[3,2,1-de]pyrido[3,2,1-ij][1,5]naphthyridine] | 
2.08 ± 0.16 µM | 8 fold | CCC12C=C(COCc3cnc(Cl)s3)n3c4c(c5ccccc53)CCN(CCC1)C42 [Compound 25, 2-chloro-5-((((41S,13aS)-13a-ethyl-2,3,41,5,6,13a-hexahydro-1H-indolo[3,2,1-de]pyrido[3,2,1-ij][1,5]naphthyridin-12-yl)methoxy)methyl)thiazole] | superior inhibitory activity compared to vinpocetine
17.3 ± 1.21 µM |  | CCOC(=O)C1=C[C@]2(CC)CCCN3CCc4c(n1c1ccccc41)[C@@H]32 [Vinpocetine] | 
